Measured values from patent US11617726B2, “Method for preventing, treating, or ameliorating a microbial infection” (priority 2018, dated 2023).

Tested on: Acinetobacter baumannii isolates
Experiment: Antimicrobial susceptibility test, disc diffusion method (CLSI M100-S24)
Assay type: cell-based
Parameters: key to Inhibition zone: “NZ” indicated that no zone of inhibition was observed
Settings: disc diffusion
Method: A total of 33 non-duplicate, non-consecutive clinical isolates of Multi-Drug Resistant (MDR) Acinetobacter baumannii were collected from burn wards (“AB1-AB33”). Acinetobacter baumannii ATCC BAA 747 and Pseudomonas aeruginosa ATCC 27853 were used as control strains. The isolates were stored at −80° C. in trypticase soy broth containing 20% glycerol.
Antimicrobial susceptibility tests of the collection of isolates were conducted using the disc diffusion method. The experiment was performed according to the recommendations and guidelines of Clinical Laboratory Standard Institutes (CLSI M100-S24; 2014). Clinical and Laboratory Standards Institute (CLSI), “Performance standards for antimicrobial susceptibility testing; twenty-fourth informational supplement,” Document M100-S24, Clinical and Laboratory Standards Institute (CLSI), Wayne, Pa., USA, 2014.
A panel of commercial antibiotic discs (Amoxicillin (AMX), Amoxicillin/clavulanic acid (AMX/CLA), Piperacillin (PIP), Piperacillin/Tazobactam (PIP/TAZ), Ceftazidime (CAZ), Cefotaxime (CTX), Cefepime (FEP), Cefoxitin (FOX), Aztreonam (ATM), Imipenem (IP), Gentamicin (GEN), Amikacin (AK), Neomycin (NEO), Levofloxacin (LEV), Chloramphenicol (CHL), Tetracycline (TET), sulfamethoxazole/trimethoprim (SUL/TRI) was used for susceptibility testing. All commercial antibiotic discs were purchased from BBL (Becton Dickinson, USA).
Forty grams of Mueller-Hinton Agar (MHA) were suspended in 1 Liter distilled water and then boiled to dissolve the powder completely. The medium was sterilized by autoclaving at 121° C. for 15 min. After autoclaving, the medium was cooled to 45° C. and 25 mL of molten agar media was poured into sterile Petri dishes (90 mm diameter) to give a depth of about 4 mm. The surface of the agar was dried to remove excess moisture before use. The plates were stored at 4-8° C. in sealed plastic bags if not used immediately.
The inoculum suspension was prepared by selecting three to five morphologically similar colonies from overnight growth (16-24 h of incubation) on blood agar medium. […] The suspension density was measured using a UV spectrophotometer calibrated with a 0.5 McFarland standard. The density of the suspension was adjusted to McFarland 0.5 by addition of saline or more microorganisms. The adjusted inoculum suspension was used within 60 min of preparation.
A sterile cotton swab was dipped into the bacterial suspension and the excess fluid was removed by turning the swab against the inside wall of the tube to avoid over-inoculation of plates. The inoculum was spread evenly over the entire surface of the agar plate by swabbing in three directions.
The predetermined panel of antimicrobial disks was applied firmly on the inoculated Mueller-Hinton agar surface within 15 min of inoculation of the plates by a disc dispenser device. A maximum of six disks were accommodated on a 90-mm circular plate.
Within 15 min of application of antimicrobial disks, the plates were inverted and incubated aerobically at 35-37° C. for 18-20 h.
After incubation, inhibition zones were measured at the point where no obvious growth is detected by the unaided eye when the plate is held about 30 cm from the eye. Inhibition zone diameters were measured to the nearest millimeter with a ruler. The plates were read from the back of the plate with reflected light against a dark background. Zone diameters were interpreted and categorized as susceptible “S”, intermediate “I”, or resistant “R” according to the CLSI clinical breakpoint tables (see Table 1 and Table 2).

Molecule | Inhibition zone (isolate AB1) [mm] | Inhibition zone (isolate AB2) [mm] | Inhibition zone (isolate AB3) [mm] | Inhibition zone (isolate AB4) [mm] | Inhibition zone (isolate AB5) [mm] | Inhibition zone (isolate AB6) [mm] | Inhibition zone (isolate AB7) | Inhibition zone (isolate AB8) | Inhibition zone (isolate AB9) [mm] | Inhibition zone (isolate AB10) | Inhibition zone (isolate AB11) | Inhibition zone (isolate AB12) | Inhibition zone (isolate AB13) | Inhibition zone (isolate AB14) | Inhibition zone (isolate AB15) [mm] | Inhibition zone (isolate AB16) | Inhibition zone (isolate AB17) [mm] | Inhibition zone (isolate AB18) | Inhibition zone (isolate AB19) | Inhibition zone (isolate AB20) | other results
NC[C@@H]1O[C@H](O[C@H]2[C@@H](O)[C@H](O[C@@H]3[C@@H](O)[C@H](N)C[C@H](N)[C@H]3O[C@H]3O[C@H](CN)[C@@H](O)[C@H](O)[C@H]3N)O[C@@H]2CO)[C@H](N)[C@@H](O)[C@@H]1O [NEO, Neomycin] | 23 | 20 | 22 | 27 | 10 | 14 | 12 mm | 11 mm | 20 | NZ | NZ | 15 mm | 9 mm | NZ | 13 | NZ | 20 | 15 mm | 13 mm | NZ | Inhibition zone (isolate AB21): 13 mm; Inhibition zone (isolate AB22): 7 mm; Inhibition zone (isolate AB23): 10 mm; Inhibition zone (isolate AB24): 14 mm; Inhibition zone (isolate AB25): 8 mm; Inhibition zone (isolate AB26): 20 mm; Inhibition zone (isolate AB27): 9 mm; Inhibition zone (isolate AB28): 15 mm; Inhibition zone (isolate AB29): 15 mm; Inhibition zone (isolate AB30): 15 mm; Inhibition zone (isolate AB31): 8 mm; Inhibition zone (isolate AB32): 10 mm; Inhibition zone (isolate AB33): 20 mm
Gentamicin | 24 | 20 | 24 | 22 | 15 | 26 | NZ | NZ | 21 | NZ | NZ | 12 mm | NZ | NZ | 20 | 18 mm | 24 | 17 mm | 20 mm | NZ | Inhibition zone (isolate AB21): 17 mm; Inhibition zone (isolate AB22): NZ; Inhibition zone (isolate AB23): NZ; Inhibition zone (isolate AB24): 19 mm; Inhibition zone (isolate AB25): 19 mm; Inhibition zone (isolate AB26): NZ; Inhibition zone (isolate AB27): 8 mm; Inhibition zone (isolate AB28): 20 mm; Inhibition zone (isolate AB29): 20 mm; Inhibition zone (isolate AB30): 20 mm; Inhibition zone (isolate AB31): 8 mm; Inhibition zone (isolate AB32): NZ; Inhibition zone (isolate AB33): 20 mm
CO/N=C(\C(=O)N[C@@H]1C(=O)N2C(C(=O)[O-])=C(C[N+]3(C)CCCC3)CS[C@H]12)c1csc(N)n1 [FEP, Cefepime] | 20 | 16 | 18 | 14 | 7 | 21 | NZ | NZ | 22 | 7 mm | NZ | NZ | NZ | NZ | 8 | 35 mm | 11 | NZ | NZ | NZ | Inhibition zone (isolate AB21): NZ; Inhibition zone (isolate AB22): NZ; Inhibition zone (isolate AB23): NZ; Inhibition zone (isolate AB24): 7 mm; Inhibition zone (isolate AB25): 10 mm; Inhibition zone (isolate AB26): 14 mm; Inhibition zone (isolate AB27): 8 mm; Inhibition zone (isolate AB28): NZ; Inhibition zone (isolate AB29): NZ; Inhibition zone (isolate AB30): NZ; Inhibition zone (isolate AB31): NZ; Inhibition zone (isolate AB32): NZ; Inhibition zone (isolate AB33): 18 mm
